Assay results from ChEMBL document CHEMBL4419176, “Compositions and methods for treating cancer” (2017).
pIC50: −log10 of the molar value. Each block holds one compound with its values, some of them ahead of it. The source made the active and inactive calls. The calls are words filed in the database; no cut-off is given here.

Legend:
[1] = molecular target: Diacylglycerol kinase alpha (Homo sapiens) (UniProt P23743); experiment: Inhibition of FLAG-tagged DGKa (unknown origin) using lipids and [gamma-32P]-ATP incubated for 15 mins by scintillation counting method
U-251 [2] = experiment: Cytotoxicity in human U251 cells assessed as reduction in cell viability at 25 to 75 uM by alamar blue dye based assay; format: functional
VMM39 [3] = experiment: Cytotoxicity in human VMM39 cells assessed as reduction in cell viability at 25 to 150 uM by alamar blue dye based assay; format: functional
VMM39 [4] = experiment: Synergistic cytotoxicity in human VMM39 cells assessed as reduction in cell viability at 7.5 uM in presence of 50 uM TMZ by alamar blue dye based assay; format: functional
GL261 [5] = experiment: Cytotoxicity in mouse GL261 cells assessed as reduction in cell viability at 10 uM in presence of 10 uM chloroquine incubated for 2 to 4 days by Trypan blue exclusion based hemocytometry; format: functional
Homo sapiens [6] = species: Homo sapiens; experiment: Cytotoxicity in human MPanc96 cells with TNFalpha-induced epithelial-mesenchymal transition at 15 uM; format: functional, cell-based
[7] = molecular target: Diacylglycerol kinase alpha (Homo sapiens) (UniProt P23743); experiment: Inhibition of DGKa in human U251 cells assessed as reduction in p53 phosphorylation at S15 residues at 12.5 to 17.5 uM incubated for 24 hrs by immunoblot analysis; format: cell-based
VMM39 [8] = experiment: Cytotoxicity in human VMM39 cells assessed as reduction in cell viability at 2.5 to 22.5 uM by alamar blue dye based assay; format: functional
[9] = molecular target: Diacylglycerol kinase alpha (Homo sapiens) (UniProt P23743); experiment: Inhibition of DGKa in human G2 cells assessed as decrease in RhoA expression by ELISA; format: cell-based
Homo sapiens [10] = experiment: Antitumor activity against human G2 cells xenografted in orally dosed mouse assessed as increase in median mouse survival; format: functional, organism-based
[11] = Cytotoxicity in human JWL578 cells assessed as reduction in cell viability incubated for 2 to 4 days by Trypan blue exclusion based hemocytometry; format: functional
[12] = molecular target: Diacylglycerol kinase alpha (Homo sapiens) (UniProt P23743); experiment: Inhibition of DGKa in human G88 cells assessed as decrease in GGTase-1 by measuring increase in unprenylated ras-related protein RaplA expression by immunoblot analysis; format: cell-based
[13] = molecular target: Diacylglycerol kinase alpha (Homo sapiens) (UniProt P23743); experiment: Inhibition of DGKa in human G88 cells assessed as decrease in RhoA expression by ELISA; format: cell-based
VMM39 [14] = experiment: Cytotoxicity in human VMM39 cells assessed as reduction in cell viability at 15 uM in presence of 10 uM chloroquine incubated for 2 to 4 days by Trypan blue exclusion based hemocytometry; format: functional
VMM39 [15] = experiment: Induction of apoptosis in human VMM39 cells at 10 to 20 uM by Annexin V-PE and 7-AAD staining based flow cytometry; format: functional, cell-based
[16] = molecular target: Diacylglycerol kinase alpha (Homo sapiens) (UniProt P23743); experiment: Inhibition of DGKa in human G2 cells assessed as decrease in GGTase-1 by measuring increase in unprenylated ras-related protein RaplA expression by immunoblot analysis; format: cell-based
Astrocyte [17] = experiment: Cytotoxicity against immortalized astrocytes (unknown origin) assessed as reduction in cell viability at >20 uM incubated for 2 to 4 days by Trypan blue exclusion based hemocytometry
[18] = molecular target: Diacylglycerol kinase alpha (Homo sapiens) (UniProt P23743); experiment: Inhibition of DGKa in human JWL578 cells transfected with mTOR promoter assessed as decrease in mTOR promoter activity at 20 uM incubated for 36 to 48 hrs by luciferase reporter gene assay; format: cell-based
A549 = experiment: Cytotoxicity in human A549 cells with TNFalpha-induced epithelial-mesenchymal transition at 15 uM; format: functional, cell-based
U-251 [19] = experiment: Cytotoxicity in human U251 cells assessed as reduction in cell viability at 10 uM in presence of phosphatidic acid incubated for 2 to 4 days by Trypan blue exclusion based hemocytometry; format: functional
[20] = molecular target: Diacylglycerol kinase alpha (Homo sapiens) (UniProt P23743); experiment: Inhibition of DGKa in human U251 cells assessed as HSP60 protein level at 15 uM incubated for 24 hrs by dot-blot proteomics assay relative to baseline; format: cell-based; design: scale not given: the % may be the effect or the level left
U-251 [21] = experiment: Antitumor activity against human U251 cells xenografted in athymic nu/nu mouse assessed as increase in mouse survival at 50 mg/kg dosed via daily oral gavage starting 7 days post-tumor implantation and measured up to 50 days post tumor implantation; format: functional, organism-based
[22] = molecular target: Diacylglycerol kinase alpha (Homo sapiens) (UniProt P23743); experiment: Inhibition of DGKa in human U251 cells assessed as reduction in p53 phosphorylation at S15 residues at 15 uM incubated for 24 hrs by dot-blot proteomics assay relative to baseline; format: cell-based
[23] = molecular target: Diacylglycerol kinase alpha (Homo sapiens) (UniProt P23743); experiment: Inhibition of DGKa in human G2 cells assessed as decrease in NF-kappaB expression under 4 Gy irradiation by luciferase reporter gene assay; format: cell-based
U-251 [24] = experiment: Synergistic cytotoxicity in human U251 cells assessed as reduction in cell viability at 7.5 uM in presence of 50 uM TMZ by alamar blue dye based assay; format: functional
U-251 [25] = experiment: Cytotoxicity in human U251 cells assessed as reduction in cell viability at 10 uM in presence of 20 uM chloroquine incubated for 2 to 4 days by Trypan blue exclusion based hemocytometry; format: functional
[26] = molecular target: Diacylglycerol kinase alpha (Homo sapiens) (UniProt P23743); experiment: Inhibition of DGKa in human VMM39 cells assessed as reduction in p53 phosphorylation at S15 residues at 12.5 to 17.5 uM incubated for 24 hrs by immunoblot analysis; format: cell-based
GL261 [27] = experiment: Antitumor activity against mouse GL261 cells implanted in mouse syngeneic immunocompetent tumor model assessed as reduction in tumor size at 50 mg/kg dosed via daily oral gavage starting 6 days post-tumor implantation and measured up to 100 days post tumor implantation by magnetic resonance imaging analysis; format: functional, organism-based
[28] = molecular target: Diacylglycerol kinase alpha (Homo sapiens) (UniProt P23743); experiment: Inhibition of DGKa in human G88 cells assessed as decrease in NF-kappaB expression under 4 Gy irradiation by luciferase reporter gene assay; format: cell-based
Homo sapiens [29] = species: Homo sapiens; experiment: Cytotoxicity in G528 cells (unknown origin) assessed as reduction in cell viability at 10 to 15 uM in presence of 10 uM chloroquine incubated for 2 to 4 days by Trypan blue exclusion based hemocytometry; format: functional
Homo sapiens [30] = species: Homo sapiens; experiment: Increase in PDGFRA expression in human G88 cells at 3 uM by immunoblot analysis; format: functional, cell-based
U-251 [31] = experiment: Induction of autophagy in human U251 cells assessed as LC3-II accumulation at 10 uM in presence of 20 uM chloroquine by immunoblot analysis; format: functional, cell-based
U-251 [32] = experiment: Induction of apoptosis in human U251 cells at 10 to 20 uM in presence of apoptosis inhibitor ZVAD-FMK by Annexin V-PE and 7-AAD staining based flow cytometry; format: functional, cell-based
[33] = molecular target: Diacylglycerol kinase alpha (Homo sapiens) (UniProt P23743); experiment: Inhibition of DGKa in human U251 cells transfected with HIF1a promoter assessed as decrease in HIF1a promoter activity at 20 uM incubated for 36 to 48 hrs by luciferase reporter gene assay; format: cell-based
A-375 [34] = experiment: Antitumor activity against human A375 cells xenografted in athymic nu/nu mouse assessed as increase in mouse survival at 50 mg/kg dosed via daily oral gavage starting 6 days post-tumor implantation and measured up to 50 days post tumor implantation; format: functional, organism-based
A-375 [35] = experiment: Antitumor activity against human A375 cells xenografted in athymic nu/nu mouse assessed as reduction in tumor volume at 50 mg/kg dosed via daily oral gavage starting 6 days post-tumor implantation and measured up to 50 days post tumor implantation; format: functional, organism-based
B16 = experiment: Cytotoxicity in mouse B16 cells assessed as reduction in cell viability at 10 uM in presence of 5 uM chloroquine incubated for 2 to 4 days by Trypan blue exclusion based hemocytometry; format: functional
[36] = Selectivity ratio of cytotoxicity against human mesenchymal GBM cells to cytotoxicity against human non-mesenchymal cells at 1 to 30 uM; format: functional
[37] = Synergistic cytotoxicity in human G2 cells assessed as combination index at 2 uM in presence of imatinib incubated for 5 days; format: functional
Homo sapiens [38] = species: Homo sapiens; experiment: Cytotoxicity in G34 cells (unknown origin) assessed as reduction in cell viability at 10 uM in presence of 5 uM chloroquine incubated for 2 to 4 days by Trypan blue exclusion based hemocytometry; format: functional
U-251 [39] = experiment: Cytotoxicity in human U251 cells assessed as reduction in cell viability at 2.5 to 17.5 uM by alamar blue dye based assay; format: functional
Homo sapiens [40] = species: Homo sapiens; experiment: Increase in PDGFRA expression in human G2 cells at 3 uM by immunoblot analysis; format: functional, cell-based
GL261 [41] = experiment: Antitumor activity against mouse GL261 cells implanted in mouse syngeneic immunocompetent tumor model assessed as reduction in tumor volume at 100 mg/kg dosed via daily oral gavage starting 6 days post-tumor implantation and measured up to 100 days post tumor implantation; format: functional, organism-based
VMM39 [42] = experiment: Antitumor activity against human VMM39 cells xenografted in athymic nu/nu mouse assessed as induction of delay in tumor formation at 50 mg/kg dosed via daily oral gavage; format: functional, organism-based
Astrocyte [43] = experiment: Cytotoxicity against immortalized astrocytes (unknown origin) assessed as reduction in cell viability at 10 to 15 uM in presence of 10 uM chloroquine incubated for 2 to 4 days by Trypan blue exclusion based hemocytometry
U-251 [44] = experiment: Induction of apoptosis in human U251 cells at 10 to 20 uM by Annexin V-PE and 7-AAD staining based flow cytometry; format: functional, cell-based
Homo sapiens [45] = species: Homo sapiens; experiment: Cytotoxicity in human GB816 cells with TNFalpha-induced proneural-to- mesenchymal transition at 8 uM; format: functional, cell-based
VMM39 [46] = experiment: Induction of apoptosis in human VMM39 cells at 10 to 20 uM in presence of apoptosis inhibitor ZVAD-FMK by Annexin V-PE and 7-AAD staining based flow cytometry; format: functional, cell-based
[47] = molecular target: Diacylglycerol kinase alpha (Homo sapiens) (UniProt P23743); experiment: Inhibition of DGKa in human U251 cells transfected with mTOR promoter assessed as decrease in mTOR promoter activity at 20 uM incubated for 36 to 48 hrs by luciferase reporter gene assay; format: cell-based
VMM39 [48] = experiment: Antitumor activity against human VMM39 cells xenografted in athymic nu/nu mouse assessed as induction of delay in tumor formation at 10 mg/kg dosed via daily oral gavage; format: functional, organism-based
Homo sapiens [49] = species: Homo sapiens; experiment: Cytotoxicity in human JWL578 cells assessed as reduction in cell viability at 10 uM in presence of phosphatidic acid incubated for 2 to 4 days by Trypan blue exclusion based hemocytometry; format: functional
[50] = molecular target: Diacylglycerol kinase alpha (Homo sapiens) (UniProt P23743); experiment: Inhibition of DGKa in human U251 cells assessed as reduction in P70 S6K phosphorylation at T389/T421 residues at 15 uM incubated for 24 hrs by dot-blot proteomics assay relative to baseline; format: cell-based
U-251 [51] = experiment: Induction of autophagy in human U251 cells assessed as LC3-II accumulation at 10 to 20 uM by immunoblot analysis; format: functional, cell-based
[52] = Synergistic cytotoxicity in human G88 cells assessed as combination index at 2 uM in presence of imatinib incubated for 5 days; format: functional
Homo sapiens [53] = species: Homo sapiens; experiment: Cytotoxicity in human GB464 cells with TNFalpha-induced proneural-to- mesenchymal transition at 8 uM; format: functional, cell-based

Diacylglycerol kinase alpha (Homo sapiens), sequence (P23743 whole entry): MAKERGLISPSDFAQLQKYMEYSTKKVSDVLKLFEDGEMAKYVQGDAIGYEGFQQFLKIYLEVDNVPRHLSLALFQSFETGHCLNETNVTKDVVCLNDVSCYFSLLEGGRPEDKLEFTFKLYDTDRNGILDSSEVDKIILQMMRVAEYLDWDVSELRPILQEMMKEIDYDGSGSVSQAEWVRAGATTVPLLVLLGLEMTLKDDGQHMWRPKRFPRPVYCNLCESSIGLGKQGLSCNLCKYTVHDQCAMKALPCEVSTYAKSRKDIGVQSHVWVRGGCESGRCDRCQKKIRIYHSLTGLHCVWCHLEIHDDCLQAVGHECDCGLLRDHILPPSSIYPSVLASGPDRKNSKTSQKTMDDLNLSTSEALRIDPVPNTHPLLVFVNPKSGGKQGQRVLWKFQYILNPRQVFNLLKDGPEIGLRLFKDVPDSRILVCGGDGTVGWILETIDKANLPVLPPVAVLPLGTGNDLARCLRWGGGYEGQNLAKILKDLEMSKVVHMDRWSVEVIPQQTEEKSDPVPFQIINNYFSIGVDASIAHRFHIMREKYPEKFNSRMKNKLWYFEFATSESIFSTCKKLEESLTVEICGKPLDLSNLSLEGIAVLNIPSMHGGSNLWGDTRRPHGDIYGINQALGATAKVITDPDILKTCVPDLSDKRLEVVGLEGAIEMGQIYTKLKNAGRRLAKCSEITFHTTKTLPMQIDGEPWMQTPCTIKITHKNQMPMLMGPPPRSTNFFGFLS

inhibition [1]: Dose-dependent effect
SMILES: Cc1nc2sccn2c(=O)c1CCN1CCC(=C(c2ccccc2)c2ccc(F)cc2)CC1

SMILES: Cn1nnc2c(C(N)=O)ncn2c1=O
Activity (U-251 [2]): inactive
Activity (VMM39 [3]): inactive

inhibition [7]: Active
inhibition [9]: Active
inhibition [12]: Active
inhibition [13]: Active
inhibition [16]: Active
inhibition [18]: Active
Activity [20]: 10%
inhibition [22]: Active
inhibition [23]: Active
inhibition [26]: Active
inhibition [28]: Active
inhibition [1]: Dose-dependent effect
inhibition [33]: Active
inhibition [47]: Active
inhibition [50]: Active
SMILES: Cc1nc2sccn2c(=O)c1CCN1CCC(=C(c2ccc(F)cc2)c2ccc(F)cc2)CC1 [RITANSERIN]
Activity (VMM39 [4]): <=90%
Activity (GL261 [5]): Active
Activity (Homo sapiens [6]): Active
Activity (VMM39 [8]): inactive
Activity (Homo sapiens [10]): Active
pIC50 [11]: 5.00 to 5.30
Activity (VMM39 [14]): Active
Activity (VMM39 [15]): Active
Activity (Astrocyte [17]): Non-Toxic
Activity (A549): Active
Activity (U-251 [19]): inactive
Activity (U-251 [21]): Active
Activity (U-251 [24]): <=90%
Activity (U-251 [25]): Active
Activity (GL261 [27]): Active
Activity (Homo sapiens [29]): Active
Activity (Homo sapiens [30]): Active
Activity (U-251 [31]): Active
Activity (U-251 [32]): Active
Activity (A-375 [34]): Active
Activity (A-375 [35]): Active
Activity (B16): Active
Ratio [36]: 3 - 4
CI [37]: 0.24
Activity (Homo sapiens [38]): Active
Activity (U-251 [39]): inactive
Activity (Homo sapiens [40]): Active
Activity (GL261 [41]): Active
Activity (VMM39 [42]): Active
Activity (Astrocyte [43]): Non-Toxic
Activity (U-251 [44]): Active
Activity (Homo sapiens [45]): Active
Activity (VMM39 [46]): Active
Activity (VMM39 [48]): inactive
Activity (Homo sapiens [49]): inactive
Activity (U-251 [51]): Active
CI [52]: 0.25
Activity (Homo sapiens [53]): Active
